Data from patent US20060247320A1, “Compounds for inhibiting KSP kinesin activity” (priority 2005, published 2006).

Molecular target: T1, KSP motor domain (Homo sapiens, UniProt P52732)
T1 sequence (P52732 18-359 limits assumed): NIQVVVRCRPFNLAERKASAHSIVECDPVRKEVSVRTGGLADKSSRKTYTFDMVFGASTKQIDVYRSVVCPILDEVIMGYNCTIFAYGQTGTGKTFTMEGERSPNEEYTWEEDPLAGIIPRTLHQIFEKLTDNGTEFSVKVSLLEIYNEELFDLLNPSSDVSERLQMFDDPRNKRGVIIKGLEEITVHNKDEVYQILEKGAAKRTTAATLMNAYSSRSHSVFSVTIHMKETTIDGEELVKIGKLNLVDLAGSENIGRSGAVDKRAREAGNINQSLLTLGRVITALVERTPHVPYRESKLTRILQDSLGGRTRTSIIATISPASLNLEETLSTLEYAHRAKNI
Assay: biochemical
Settings: KSP inhibitory activity, end-point assay; class symbols (Table 1); read-out: IC50

| SMILES | IC50 [nM] |
| --- | --- |
| CC(C)(C)C1CCc2nc3sc(C(=O)NCCN4CCCCC4)cc3cc2C1 (stereo not drawn) [Example 198, 6-(1,1-Dimethylethyl)-5,6,7,8-Tetrahydro-N-[2-(1-Piperidinyl)ethyl]thieno[2,3-b]quinoline-2-Carboxamide] | 1000 to 10000 |
| CC(C)(C)C1CCc2nc3sc(C(=O)NCCN4CCCC4)cc3cc2C1 (stereo not drawn) [Example 199, 6-(1,1-Dimethylethyl)-5,6,7,8-tetrahydro-N-[2-(1-Pyrrolidinyl)ethyl]thieno[2,3-b]quinoline-2-Carboxamide] | 1000 to 10000 |
| CC(C)(C)C1CCc2nc3sc(C(=O)NN4CCOCC4)cc3cc2C1 (stereo not drawn) [Example 200, 6-(1,1-Dimethylethyl)-5,6,7,8-Tetrahydro-N-(4-Morpholinyl)thieno[2,3-b]quinoline-2-Carboxamide] | 1000 to 10000 |
| CC1Cc2nc3sc(C#N)c(N)c3cc2CC1C(C)(C)C (stereo not drawn) [Example 202, 3-Amino-6-tert-butyl-7-methyl-5,6,7,8-tetrahydrothieno[2,3-b]quinoline-2-carbonitrile] | 100 to 1000 |
| CC1Cc2nc3sc(C#N)cc3cc2CC1C(C)(C)C (stereo not drawn) [Example 203, 6-tert-Butyl-7-methyl-5,6,7,8-tetrahydro-thieno[2,3,-b]quinoline-2-carbonitrile] | 100 to 1000 |
| CC1Cc2nc3sc(C(N)=O)cc3cc2CC1C(C)(C)C (stereo not drawn) [Example 204, 6-tert-Butyl-7-methyl-5,6,7,8-tetrahydro-thieno[2,3,-b]quinoline-2-carboxylic acid amide] | 100 to 1000 |
| CCC1Cc2nc3sc(C#N)c(N)c3cc2CC1C(C)(C)C (stereo not drawn) [Example 205, 3-Amino-6-tert-butyl-7-ethyl-5,6,7,8-tetrahydrothieno[2,3-b]quinoline-2-carbonitrile] | 1000 to 10000 |
| CCC1Cc2nc3sc(C#N)cc3cc2CC1C(C)(C)C (stereo not drawn) [Example 206, 6-tert-Butyl-7-ethyl-5,6,7,8-tetrahydro-thieno[2,3,-b]quinoline-2-carbonitrile] | 1000 to 10000 |
| CC(C)C1Cc2cc3c(N)c(C#N)sc3nc2CC1C (stereo not drawn) [Example 207, 3-Amino-6-isopropyl-7-methyl-5,6,7,8-tetrahydro-thieno[2,3-b]quinoline-2-carbonitrile] | > 10000 |
| CC(C)C1Cc2cc3cc(C#N)sc3nc2CC1C (stereo not drawn) [Example 208, 6-isopropyl-7-methyl-5,6,7,8-tetrahydro-thieno[2,3,-b]quinoline-2-carbonitrile] | 100 to 1000 |
| CC(C)C1Cc2cc3cc(C(N)=O)sc3nc2CC1C (stereo not drawn) [Example 209, 6-isopropyl-7-methyl-5,6,7,8-tetrahydro-thieno[2,3,-b]quinoline-2-carboxylic acid amide] | 100 to 1000 |
| CC(C)(C)C1CCc2nc3sc(C(=O)N[C@H](CN)c4cccc(Br)c4)cc3cc2C1 (stereo partly drawn) [Example 210, 6-tert-butyl-5,6,7,8-tetrahydro-thieno[2,3-b]quinoline-2-carboxylic acid [(1S)-2-amino-1-(3-bromo-phenyl)-ethyl]-amide] | 100 to 1000 |
| CC(C)(C)C1CCc2nc3sc(C(=O)N[C@H](CN)c4cccc(-c5ccccc5)c4)cc3cc2C1 (stereo partly drawn) [Example 211, 6-tert-butyl-5,6,7,8-tetrahydro-thieno[2,3-b]quinoline-2-carboxylic acid [(1S)-2-amino-1-biphenyl-3-yl-ethyl)-amide] | 100 to 1000 |
| CC(C)(C)C1CCc2nc3sc(C(=O)N[C@H](CN)c4cccc(-c5ccncc5)c4)cc3cc2C1 (stereo partly drawn) [Example 212, 6-tert-butyl-5,6,7,8-tetrahydro-thieno[2,3-b]quinoline-2-carboxylic acid [(1S)-2-amino-1-(3-pyridin-4-yl-phenyl)-ethyl]-amide] | 100 to 1000 |
| CC(C)(C)C1CCc2nc3sc(C(=O)N[C@H](CN)c4cccc(-c5cccc6cccnc56)c4)cc3cc2C1 (stereo partly drawn) [Example 213, 6-tert-butyl-5,6,7,8-tetrahydro-thieno[2,3-b]quinoline-2-carboxylic acid [(1S)-2-amino-1-(3-quinolin-8-yl-phenyl)-ethyl]-amide] | 100 to 1000 |
| CC(C)(C)C1CCc2nc3sc(C(=O)N[C@H](CN)c4cccc([N+](=O)[O-])c4)cc3cc2C1 (stereo partly drawn) [Example 214] | < 100 |
| CC(C)(C)C1CCc2nc3sc(C(=O)N[C@H](CN)c4ccc([N+](=O)[O-])cc4)cc3cc2C1 (stereo partly drawn) [Example 215] | < 100 |
| CC(C)(C)C1CCc2nc3sc(C(=O)N[C@H](CN)c4ccc(C#N)cc4)cc3cc2C1 (stereo partly drawn) [Example 216] | < 100 |

| SMILES | IC50 [nM] |
| --- | --- |
| CC(C)(C)C1CCc2nc3sc(C(=O)N[C@H](CN)c4cccc(N)c4)cc3cc2C1 (stereo partly drawn) [Example 217] | < 100 |
| CC(C)(C)C1CCc2nc3sc(C(=O)N[C@H](CN)c4ccc(N)cc4)cc3cc2C1 (stereo partly drawn) [Example 218] | < 100 |
| COc1ccc([C@@H](CN)NC(=O)c2cc3cc4c(nc3s2)CCC(C(C)(C)C)C4)cc1 (stereo partly drawn) [Example 219] | < 100 |
| Cc1cccc([C@@H](CN)NC(=O)c2cc3cc4c(nc3s2)CCC(C(C)(C)C)C4)c1 (stereo partly drawn) [Example 220] | < 100 |
| Cc1ccc([C@@H](CN)NC(=O)c2cc3cc4c(nc3s2)CCC(C(C)(C)C)C4)cc1 (stereo partly drawn) [Example 221] | < 100 |
| CC(=O)Nc1cccc(C(CN)NC(=O)c2cc3cc4c(nc3s2)CCC(C(C)(C)C)C4)c1 (stereo not drawn) [Example 222, 6-tert-butyl-5,6,7,8-tetrahydrothieno[2,3-b]quinoline-2-carboxylic acid [1-(3-acetylaminophenyl)-2-aminoethyl]amide] | < 100 |
| CCOC(=O)Nc1cccc(C(CN)NC(=O)c2cc3cc4c(nc3s2)CCC(C(C)(C)C)C4)c1 (stereo not drawn) [Example 223, (3-{2-amino-1-[(6-tert-butyl-5,6,7,8-tetrahydrothieno[2,3-b]quinoline-2-carbonyl)amino]ethyl}phenyl)carbamic acid ethyl ester] | < 100 |
| CC(C)(C)C1CCc2nc3sc(C(=O)NC(CN)c4ccc(C(N)=O)cc4)cc3cc2C1 (stereo not drawn) [Example 224, 6-tert-butyl-5,6,7,8-tetrahydrothieno[2,3-b]quinoline-2-carboxylic acid [2-amino-1-(4-carbamoylphenyl)ethyl]amide] | < 100 |
| CC(C)(C)C1CCc2nc3sc(C(=O)N[C@H](CN)c4ccccc4)nc3cc2C1 (stereo partly drawn) [Example 225, 6-tert-butyl-5,6,7,8-tetrahydro-thiazolo[5,4-b]quinoline-2-carboxylic acid [2(S)-amino-1-phenyl-ethyl]-amide] | < 100 |
| CC(C)(C)C1CCc2nc3sc(C(=O)Nc4ccc(O)cc4)cc3cc2C1 (stereo not drawn) [Example 226A, 2-(1-Amino-4-Hydroxyphenyl) carboxamido-6-tert-butyl-5,6,7,8-tetrahydrothieno [2,3-b]quinoline] | 100 to 1000 |
| CC(C)(C)C1CCc2nc3sc(C(=O)Nc4cccnc4)cc3cc2C1 (stereo not drawn) [Example 226B] | 100 to 1000 |
| CC(C)(C)C1CCc2nc3sc(C(=O)Nc4ccncc4)cc3cc2C1 (stereo not drawn) [Example 226C] | 100 to 1000 |
| CC(C)(C)C1CCc2nc3sc(C(=O)Nc4cccc(N)c4)cc3cc2C1 (stereo not drawn) [Example 226D] | 100 to 1000 |
| CC(C)(C)C1CCc2nc3sc(C(=O)Nc4ccncc4N)cc3cc2C1 (stereo not drawn) [Example 226E] | 100 to 1000 |
| CC(C)(C)C1CCc2nc3sc(C(=O)Nc4ccc(N)cc4)cc3cc2C1 (stereo not drawn) [Example 226F] | 100 to 1000 |
| CC(C)(C)C1CCc2nc3sc(C(=O)Nc4ccc(O)cc4N)cc3cc2C1 (stereo not drawn) [Example 226G] | 100 to 1000 |
| CC(C)(C)C1CCc2nc3sc(C(=O)Nc4ccc(O)c(N)c4)cc3cc2C1 (stereo not drawn) [Example 226H] | 100 to 1000 |
| CC(C)(C)C1CCc2nc3sc(C(=O)Nc4ccc(N)nc4)cc3cc2C1 (stereo not drawn) [Example 226J] | 100 to 1000 |
